Experimental data taken from US9458201B2, “Melanocortin receptor-specific heptapeptides” (Palatin Technologies, Inc., priority 2009, dated 2016).
Values belong to the compound of their own block, whether it stands above or below them. Peptide text beside a SMILES is read from it.

Tests used:
[1] = Induction of penile erection in male rats; type: in vivo, rat; details: for induction of penile erection: male Sprague-Dawley rats, 60 minute observation, No. 154 as trifluoracetic acid salt, No. 155 as acetate salt
Excerpt: Each dose group contained six or seven animals, with video observation for sixty minutes following administration.

hMC4-R [2] = target: T1, hMC4-R (Homo sapiens (Human), UniProt P32245); assay: Assay for agonist activity (cAMP accumulation, HEK-293 cells expressing hMC4-R); details: agonist = intrinsic activity 70% or higher; partial agonist 10-70%
T1 sequence (P32245 whole entry): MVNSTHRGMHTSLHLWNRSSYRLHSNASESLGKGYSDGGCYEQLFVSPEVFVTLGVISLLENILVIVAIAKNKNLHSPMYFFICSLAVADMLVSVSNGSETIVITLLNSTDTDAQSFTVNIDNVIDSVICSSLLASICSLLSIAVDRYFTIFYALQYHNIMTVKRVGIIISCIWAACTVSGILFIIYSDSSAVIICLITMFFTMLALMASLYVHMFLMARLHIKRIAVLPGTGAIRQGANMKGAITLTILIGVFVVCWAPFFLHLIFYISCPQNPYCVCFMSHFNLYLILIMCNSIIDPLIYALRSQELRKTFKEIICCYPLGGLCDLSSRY
Method: By “intrinsic activity” is meant the maximal functional activity achievable by a compound in a specified melanocortin receptor expressing cell system, such as the maximal stimulation of adenylyl cyclase.
Accumulation of intracellular cAMP was examined as a measure of the ability of the peptides of the present invention to elicit a functional response in HEK-293 cells that express MC4-R. Confluent HEK-293 cells that express recombinant hMC4-R were detached from culture plates by incubation in enzyme-free cell dissociation buffer. Dispersed cells were suspended in Earle's Balanced Salt Solution containing 10 mM HEPES (pH 7.5), 1 mM MgCl2, 1 mM glutamine, 0.5% albumin and 0.3 mM 3-isobutyl-1-methyl-xanthine (IBMX), a phosphodiesterase inhibitor. […] Cells were exposed for 15 minutes at 37° C. to peptides of the present invention dissolved in DMSO (final DMSO concentration of 1%) at a concentration range of 0.05-5000 nM in a total assay volume of 200 μL. […] Data analysis was performed by nonlinear regression analysis with Graph-Pad Prism® software. The maximum efficacies of the test peptides of the present invention were compared to that achieved by the reference melanocortin agonist NDP-αMSH.

[3] = Rat feeding study: food intake and body weight change; type: in vivo; details: for effect on food intake and rate of change in body weight: rat feeding studies, 0.3 and 1 mg/kg, bremelanotide as positive control; for decrease in food consumption compared to control: rat
Method: Change in food intake and body weight was evaluated for selected peptides administered by intravenous (IV) or subcutaneous injection routes. Male Sprague-Dawley rats were obtained from Hilltop Lab Animals, Inc. (Scottsdale, Pa.) or other vendors. Animals were individually housed in conventional polystyrene hanging cages and maintained on a controlled 12 hour on/off light cycle. Water and pelleted food was provided ad libitum. The rats were dosed IV with vehicle or selected peptides (0.3 to 1.0 mg/kg), or dosed subcutaneously with vehicle or selected peptides (doses up to 30 mg/kg). The changes in body weight and food intake for the 24 hour period after dosing was determined. The changes in body weight and food intake for the 48 hour and 72 hour periods after dosing can also be measured to determine reversal of changes in body weight and food intake effects back to baseline levels.

hMC4-R [4] = target: T1, hMC4-R; assay: Competitive binding assay using Eu-NDP-α-MSH; details: Eu-NDP-α-MSH (values marked *); averaged; read-out: MC4-R Ki
Method: Alternatively, a competitive inhibition binding assay was performed employing Eu-NDP-α-MSH (PerkinElmer Life Sciences catalog No. AD0225) with determination by time-resolved fluorometry (TRF) of the lanthanide chelate. […] After incubation for 90 minutes at 37° C., the reaction was stopped by filtration over AcroWell 96-well filter plates (Pall Life Sciences). The filter plates were washed 4 times with 200 μL of ice-cold phosphate-buffered saline. DELFIA Enhancement solution (PerkinElmer Life Sciences) was added to each well. […] Each assay was conducted in duplicate and mean values were utilized. Ki values were determined by curve-fitting with Graph-Pad Prism® software using a one-site fixed-slope competition binding model.

hMC4-R [5] = target: T1, hMC4-R; assay: Competitive inhibition binding assay using [I125]-NDP-α-MSH; details: [I125]-NDP-α-MSH (unmarked values); averaged; read-out: MC4-R Ki
Method: A competitive inhibition binding assay is performed using membrane homogenates prepared from HEK-293 cells that express recombinant hMC4-R, hMC3-R, or hMC5-R, and from B-16 mouse melanoma cells (containing endogenous MC1-R). In some instances, HEK-293 cells that express recombinant hMC1-R were employed. In the examples that follow, all MC3-R, MC4-R and MC5-R values are for human recombinant receptors. […] Membrane homogenates were incubated with 0.2 nM (for hMC4-R) 0.4 nM (for MC3-R and MC5-R) or 0.1 nM (for mouse B16 MC1-R or hMC1-R) [I^125]-NDP-α-MSH (Perkin Elmer) and increasing concentrations of test peptides of the present invention in buffer containing 25 mM HEPES buffer (pH 7.5) with 100 mM NaCl, 2 mM CaCl2, 2 mM MgCl2, 0.3 mM 1,10-phenanthroline, and 0.2% bovine serum albumin. After incubation for 60 minutes at 37° C., the assay mixture was filtered and the membranes washed three times with ice-cold buffer. Filters were dried and counted in a gamma counter for bound radioactivity. […] Maximal specific binding (100%) was defined as the difference in radioactivity (cpm) bound to cell membranes in the absence and presence of 1 μM NDP-α-MSH. […] Each assay was conducted in triplicate and the actual mean values are described, with results less than 0% reported as 0%. Ki values for test peptides of the present invention were determined using Graph-Pad Prism® curve-fitting software.

[6] = 1 mg/kg, 0-2, 0-4 and 0-20 hour periods

SMILES: CC(=O)N[C@@H](CCCNC(=N)N)C(=O)N[C@H]1CCCCNC(=O)C[C@@H](C(N)=O)NC(=O)[C@H](Cc2c[nH]c3ccccc23)NC(=O)[C@H](CCCNC(=N)N)NC(=O)[C@@H](Cc2ccccc2)NC(=O)[C@H](CC(N)=O)NC1=O [compound 155, Ac-Arg-cyclo(Lys-Asn-D-Phe-Arg-Trp-Asp)-NH2] (HELM PEPTIDE1{[ac].R.K.N.[dF].R.W.D.[am]}$PEPTIDE1,PEPTIDE1,3:R3-8:R3$$$V2.0)
- induction of penile erection ([1]; subcutaneous): robustly induce a penile erection

SMILES: CC(=O)N[C@@H](CCCNC(=N)N)C(=O)N[C@H]1CC(=O)NCCCC[C@@H](C(N)=O)NC(=O)[C@H](Cc2c[nH]c3ccccc23)NC(=O)[C@H](CCCNC(=N)N)NC(=O)[C@@H](Cc2ccccc2)NC(=O)[C@H](C(C)C)NC1=O [Peptide No. 16, Ac-Arg-cyclo(Asp-Val-D-Phe-Arg-Trp-Lys)-NH2]
- effect on food intake and rate of change in body weight [3]: reduce food intake and decrease the rate of change in body weight
- decrease in food consumption compared to control ([3]; 0.3 mg/kg, 0-2 and 0-4 hour periods): statistically significant
- decrease in food consumption compared to control [3, 6]: statistically significant
- functional classification at MC4-R (agonist / partial agonist) (hMC4-R [2]): partial agonist

SMILES: CC(=O)N[C@@H](CCCNC(=N)N)C(=O)N[C@H]1CCCNC(=O)CC[C@@H](C(N)=O)NC(=O)[C@H](Cc2c[nH]c3ccccc23)NC(=O)[C@H](CCCNC(=N)N)NC(=O)[C@@H](Cc2ccccc2)NC(=O)[C@H](CC(N)=O)NC1=O [compound 154, Ac-Arg-cyclo(Orn-Asn-D-Phe-Arg-Trp-Glu)-NH2]
- induction of penile erection ([1]; subcutaneous): robustly induce a penile erection

SMILES: CC(=O)N[C@@H](CCCNC(=N)N)C(=O)N[C@H]1CC(=O)NCCCC[C@@H](C(N)=O)NC(=O)[C@H](Cc2c[nH]c3ccccc23)NC(=O)[C@H](CCCNC(=N)N)NC(=O)[C@@H](Cc2ccccc2)NC(=O)[C@H](CCNC(=O)CN)NC1=O [compound 94, Ac-Arg-cyclo(Asp-Dab(Glycly)-D-Phe-Arg-Trp-Lys)-NH2]
- Ki (hMC4-R [4]): 110 nM

SMILES: CC(=O)N[C@@H](CCCNC(=N)N)C(=O)N[C@H]1CCNC(=O)CCC[C@@H](C(N)=O)NC(=O)[C@H](Cc2c[nH]c3ccccc23)NC(=O)[C@H](CCCNC(=N)N)NC(=O)[C@@H](Cc2ccccc2)NC(=O)[C@H](CCN)NC1=O [compound 129, Ac-Arg-cyclo(Dab-Dab-D-Phe-Arg-Trp-hGlu)-NH2]
- functional classification at MC4-R (agonist / partial agonist) (hMC4-R [2]): agonist

SMILES: CC(=O)N[C@@H](CCCNC(=N)N)C(=O)N[C@H]1CC(=O)NCCCC[C@@H](C(N)=O)NC(=O)[C@H](Cc2c[nH]c3ccccc23)NC(=O)[C@H](CCCNC(=N)N)NC(=O)[C@@H](Cc2ccccc2)NC(=O)[C@H](Cc2c[nH]cn2)NC1=O [Peptide No. 1, Ac-Arg-cyclo(Asp-His-D-Phe-Arg-Trp-Lys)-NH2]
- observed spontaneous erections compared to vehicle ([1]; rat, IV, doses of 0.3 or 1 mg/kg): statistically significant increase
- effect on food intake and rate of change in body weight [3]: reduce food intake and decrease the rate of change in body weight
- decrease in food consumption compared to control ([3]; 0.3 mg/kg, 0-2, 0-4 and 0-20 hour periods): statistically significant
- decrease in food consumption compared to control [3, 6]: statistically significant
- functional classification at MC4-R (agonist / partial agonist) (hMC4-R [2]): agonist

Further lines, with some results ahead:

- functional classification at MC4-R (agonist / partial agonist) (hMC4-R [2]): agonist
SMILES: CC(=O)N[C@@H](CCCNC(=N)N)C(=O)N[C@H]1CCNC(=O)CCC[C@@H](C(N)=O)NC(=O)[C@H](Cc2c[nH]c3ccccc23)NC(=O)[C@H](CCCNC(=N)N)NC(=O)[C@@H](Cc2ccccc2)NC(=O)[C@H](Cc2c[nH]cn2)NC1=O [compound 128, Ac-Arg-cyclo(Dab-His-D-Phe-Arg-Trp-hGlu)-NH2]

- functional classification at MC4-R (agonist / partial agonist) (hMC4-R [2]): agonist
SMILES: CC(=O)N[C@@H](CCCNC(=N)N)C(=O)N[C@H]1CC(=O)NCCCC[C@@H](C(N)=O)NC(=O)[C@H](Cc2c[nH]c3ccccc23)NC(=O)[C@H](CCCNC(=N)N)NC(=O)[C@@H](Cc2ccccc2)NC(=O)[C@H](CCC(N)=O)NC1=O [Peptide No. 32, Ac-Arg-cyclo(Asp-Gln-D-Phe-Arg-Trp-Lys)-NH2]
- observed spontaneous erections ([1]; rat, subcutaneous, doses of 1, 3 or 10 mg/kg): increase in observed spontaneous erections

- functional classification at MC4-R (agonist / partial agonist) (hMC4-R [2]): agonist
SMILES: CC(=O)N[C@@H](CCCNC(=N)N)C(=O)N[C@H]1CCCC(=O)NCC[C@@H](C(N)=O)NC(=O)[C@H](Cc2c[nH]c3ccccc23)NC(=O)[C@H](CCCNC(=N)N)NC(=O)[C@@H](Cc2ccccc2)NC(=O)[C@H](Cc2c[nH]cn2)NC1=O [compound 126, Ac-Arg-cyclo(hGlu-His-D-Phe-Arg-Trp-Dab)-NH2]

- Ki (hMC4-R [5]): 35 nM
SMILES: CC(=O)N[C@@H](CCCNC(=N)N)C(=O)N[C@H]1CCNC(=O)CCC[C@@H](C(N)=O)NC(=O)[C@H](Cc2c[nH]c3ccccc23)NC(=O)[C@H](CCCNC(=N)N)NC(=O)[C@@H](Cc2ccccc2)NC(=O)[C@H](CCN)NC1=O [compound 136, Ac-Arg-cyclo(Dab-Dab-D-Phe-Arg-Trp-hGlu)-OH]

- functional classification at MC4-R (agonist / partial agonist) (hMC4-R [2]): agonist
SMILES: CC(=O)N[C@@H](CCCNC(=N)N)C(=O)N[C@H]1CCCC(=O)NCC[C@@H](C(N)=O)NC(=O)[C@H](Cc2c[nH]c3ccccc23)NC(=O)[C@H](CCCNC(=N)N)NC(=O)[C@@H](Cc2ccccc2)NC(=O)[C@H](CCN)NC1=O [compound 127, Ac-Arg-cyclo(hGlu-Dab-D-Phe-Arg-Trp-Dab)-NH]

- Ki (hMC4-R [4]): 4 nM
SMILES: CC(=O)N[C@H](CCCNC(=N)N)C(=O)N[C@H]1CCCNC(=O)CC[C@@H](C(N)=O)NC(=O)[C@H](Cc2c[nH]c3ccccc23)NC(=O)[C@H](CCCNC(=N)N)NC(=O)[C@@H](Cc2ccccc2)NC(=O)[C@H](Cc2c[nH]cn2)NC1=O [compound 98, Ac-D-Arg-cyclo(Orn-His-D-Phe-Arg-Trp-Glu)-NH2]

- Ki (hMC4-R [5]): 9 nM
SMILES: CC(=O)N[C@@H](CCCNC(=N)N)C(=O)N[C@H]1CC(=O)NCCCC[C@@H](C(N)=O)NC(=O)[C@H](Cc2c[nH]c3ccccc23)NC(=O)[C@H](CCCNC(=N)N)NC(=O)[C@@H](Cc2ccccc2)NC(=O)[C@H](CCN)NC1=O [compound 141, Ac-Cit-cyclo(Asp-Dab-D-Phe-Arg-Trp-Lys)-NH2]
